{
  "source": "paper PMC5656653",
  "about": "“Evaluation of Ga-DOTA-(D-Asp)n as bone imaging agents: D-aspartic acid peptides as carriers to bone” (Scientific Reports, 2017)",
  "key": {"[1]": {"assay": "Biodistribution experiments in normal mice after i.v. injection", "format": "in vivo", "conditions": "i.v.; for tissue uptake dose at 10 min / tissue uptake dose at 1 h / tissue uptake dose at 3 h: male, ddY, mouse, in vivo, iv, total radioactivity; for tissue uptake dose at 10 min / tissue uptake dose at 1 h / tissue uptake dose at 3 h / F/B ratio (Femur:blood ratio): mice, mean (SD)", "procedure,_shortened": "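Male ddY mice (6 weeks, 27–32 g) received tracer i.v. (37–740 kBq/100 μL); 4–5 per group sacrificed at 10, 60 and 180 min. Weighed tissues and whole left femur (bone) gamma-counted with background and decay correction.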"}, "[2]": {"assay": "Urine analyses by RP-HPLC after i.v. injection", "format": "in vivo", "conditions": "mice, urine from bladder at 1 h post-injection", "method": "^67Ga-DOTA-(L-Asp)14 was prepared according to a method described previously. ^67Ga-DOTA-(L-Asp)14 or ^67Ga-DOTA-(D-Asp)14 solution (370 kBq / 200 μL) was intravenously injected to 6-week-old male ddY mice. At 1 h post-injection, mice were sacrificed and their […] were taken from the bladders. After ultrafiltration (Microcon-30, Merck KGaA), the filtrate samples were analyzed by RP-HPLC at a flow rate of 1 mL/min with a gradient mobile phase from water containing 0.1% TFA to 20% methanol in water containing 0.1% TFA for 20 min."}},
  "note": "Like-named read-outs stand apart in the source and are kept apart here. Where a SMILES comes first, the peptide text is derived from it. [ ]: non-standard residue; d: D form. The star is where a group is joined. DOTA = O=C(O)CN1CCN(CC(=O)O)CCN(CC(=O)*)CCN(CC(=O)O)CC1",
  "data": [
    {"smiles": "O=C(O)C[C@@H](NC(=O)[C@@H](CC(=O)O)NC(=O)[C@@H](CC(=O)O)NC(=O)[C@@H](CC(=O)O)NC(=O)[C@@H](CC(=O)O)NC(=O)[C@@H](CC(=O)O)NC(=O)[C@@H](CC(=O)O)NC(=O)[C@@H](CC(=O)O)NC(=O)[C@@H](CC(=O)O)NC(=O)[C@@H](CC(=O)O)NC(=O)[C@@H](CC(=O)O)NC(=O)[C@@H](CC(=O)O)NC(=O)[C@@H](CC(=O)O)NC(=O)[C@@H](CC(=O)O)NC(=O)CN1CCN(CC(=O)O)CCN(CC(=O)O)CCN(CC(=O)O)CC1)C(=O)O", "note": "[^67Ga-DOTA-(D-Asp)14, metal not drawn] ({DOTA}-[dD][dD][dD][dD][dD][dD][dD][dD][dD][dD][dD][dD][dD][dD]-OH)", "values": [
      {"measurement": "tissue uptake dose at 10 min", "setting": "[1]; 10 min after injection, footnote b, read-out: Biodistribution of radioactivity, Stomach", "value": 0.28, "unit": "%ID"},
      {"measurement": "tissue uptake dose at 10 min", "setting": "[1]; 10 min after injection, read-out: Biodistribution of radioactivity, Blood", "value": 2.46, "unit": "%ID"},
      {"measurement": "tissue uptake dose at 10 min", "setting": "[1]; 10 min after injection, read-out: Biodistribution of radioactivity, Bone (Femur)", "value": 11.9, "unit": "%ID"},
      {"measurement": "tissue uptake dose at 10 min", "setting": "[1]; 10 min after injection, read-out: Biodistribution of radioactivity, Brain", "value": 0.06, "unit": "%ID"},
      {"measurement": "tissue uptake dose at 10 min", "setting": "[1]; 10 min after injection, read-out: Biodistribution of radioactivity, Heart", "value": 0.94, "unit": "%ID"},
      {"measurement": "tissue uptake dose at 10 min", "setting": "[1]; 10 min after injection, read-out: Biodistribution of radioactivity, Kidney", "value": 8.15, "unit": "%ID"},
      {"measurement": "tissue uptake dose at 10 min", "setting": "[1]; 10 min after injection, read-out: Biodistribution of radioactivity, Large-intestine", "value": 0.4, "unit": "%ID"},
      {"measurement": "tissue uptake dose at 10 min", "setting": "[1]; 10 min after injection, read-out: Biodistribution of radioactivity, Liver", "value": 0.51, "unit": "%ID"},
      {"measurement": "tissue uptake dose at 10 min", "setting": "[1]; 10 min after injection, read-out: Biodistribution of radioactivity, Lung", "value": 1.75, "unit": "%ID"},
      {"measurement": "tissue uptake dose at 10 min", "setting": "[1]; 10 min after injection, read-out: Biodistribution of radioactivity, Muscle", "value": 0.77, "unit": "%ID"},
      {"measurement": "tissue uptake dose at 10 min", "setting": "[1]; 10 min after injection, read-out: Biodistribution of radioactivity, Pancreas", "value": 0.88, "unit": "%ID"},
      {"measurement": "tissue uptake dose at 10 min", "setting": "[1]; 10 min after injection, read-out: Biodistribution of radioactivity, Small-intestine", "value": 0.55, "unit": "%ID"},
      {"measurement": "tissue uptake dose at 10 min", "setting": "[1]; 10 min after injection, read-out: Biodistribution of radioactivity, Spleen", "value": 0.48, "unit": "%ID"},
      {"measurement": "tissue uptake dose at 1 h", "setting": "[1]; 60 min after injection, footnote b, read-out: Biodistribution of radioactivity, Stomach", "value": 0.07, "unit": "%ID"},
      {"measurement": "tissue uptake dose at 1 h", "setting": "[1]; 60 min after injection, read-out: Biodistribution of radioactivity, Blood", "value": 0.09, "unit": "%ID"},
      {"measurement": "tissue uptake dose at 1 h", "setting": "[1]; 60 min after injection, read-out: Biodistribution of radioactivity, Bone (Femur)", "value": 13, "unit": "%ID"},
      {"measurement": "tissue uptake dose at 1 h", "setting": "[1]; 60 min after injection, read-out: Biodistribution of radioactivity, Brain", "value": 0.01, "unit": "%ID"},
      {"measurement": "tissue uptake dose at 1 h", "setting": "[1]; 60 min after injection, read-out: Biodistribution of radioactivity, Heart", "value": 0.18, "unit": "%ID"},
      {"measurement": "tissue uptake dose at 1 h", "setting": "[1]; 60 min after injection, read-out: Biodistribution of radioactivity, Kidney", "value": 1.21, "unit": "%ID"},
      {"measurement": "tissue uptake dose at 1 h", "setting": "[1]; 60 min after injection, read-out: Biodistribution of radioactivity, Large-intestine", "value": 0.1, "unit": "%ID"},
      {"measurement": "tissue uptake dose at 1 h", "setting": "[1]; 60 min after injection, read-out: Biodistribution of radioactivity, Liver", "value": 0.15, "unit": "%ID"},
      {"measurement": "tissue uptake dose at 1 h", "setting": "[1]; 60 min after injection, read-out: Biodistribution of radioactivity, Lung", "value": 0.28, "unit": "%ID"},
      {"measurement": "tissue uptake dose at 1 h", "setting": "[1]; 60 min after injection, read-out: Biodistribution of radioactivity, Muscle", "value": 0.16, "unit": "%ID"},
      {"measurement": "tissue uptake dose at 1 h", "setting": "[1]; 60 min after injection, read-out: Biodistribution of radioactivity, Pancreas", "value": 0.27, "unit": "%ID"},
      {"measurement": "tissue uptake dose at 1 h", "setting": "[1]; 60 min after injection, read-out: Biodistribution of radioactivity, Small-intestine", "value": 0.18, "unit": "%ID"},
      {"measurement": "tissue uptake dose at 1 h", "setting": "[1]; 60 min after injection, read-out: Biodistribution of radioactivity, Spleen", "value": 0.12, "unit": "%ID"},
      {"measurement": "tissue uptake dose at 3 h", "setting": "[1]; 180 min after injection, footnote b, read-out: Biodistribution of radioactivity, Stomach", "value": 0.06, "unit": "%ID"},
      {"measurement": "tissue uptake dose at 3 h", "setting": "[1]; 180 min after injection, read-out: Biodistribution of radioactivity, Blood", "value": 0.03, "unit": "%ID"},
      {"measurement": "tissue uptake dose at 3 h", "setting": "[1]; 180 min after injection, read-out: Biodistribution of radioactivity, Bone (Femur)", "value": 14.8, "unit": "%ID"},
      {"measurement": "tissue uptake dose at 3 h", "setting": "[1]; 180 min after injection, read-out: Biodistribution of radioactivity, Brain", "value": 0.01, "unit": "%ID"},
      {"measurement": "tissue uptake dose at 3 h", "setting": "[1]; 180 min after injection, read-out: Biodistribution of radioactivity, Heart", "value": 0.11, "unit": "%ID"},
      {"measurement": "tissue uptake dose at 3 h", "setting": "[1]; 180 min after injection, read-out: Biodistribution of radioactivity, Kidney", "value": 0.54, "unit": "%ID"},
      {"measurement": "tissue uptake dose at 3 h", "setting": "[1]; 180 min after injection, read-out: Biodistribution of radioactivity, Large-intestine", "value": 0.2, "unit": "%ID"},
      {"measurement": "tissue uptake dose at 3 h", "setting": "[1]; 180 min after injection, read-out: Biodistribution of radioactivity, Liver", "value": 0.05, "unit": "%ID"},
      {"measurement": "tissue uptake dose at 3 h", "setting": "[1]; 180 min after injection, read-out: Biodistribution of radioactivity, Lung", "value": 0.03, "unit": "%ID"},
      {"measurement": "tissue uptake dose at 3 h", "setting": "[1]; 180 min after injection, read-out: Biodistribution of radioactivity, Muscle", "value": 0.16, "unit": "%ID"},
      {"measurement": "tissue uptake dose at 3 h", "setting": "[1]; 180 min after injection, read-out: Biodistribution of radioactivity, Pancreas", "value": 0.14, "unit": "%ID"},
      {"measurement": "tissue uptake dose at 3 h", "setting": "[1]; 180 min after injection, read-out: Biodistribution of radioactivity, Small-intestine", "value": 0.12, "unit": "%ID"},
      {"measurement": "tissue uptake dose at 3 h", "setting": "[1]; 180 min after injection, read-out: Biodistribution of radioactivity, Spleen", "value": 0.12, "unit": "%ID"},
      {"measurement": "F/B ratio (Femur:blood ratio)", "setting": "[1]; 10 min after injection", "value": "4.90 (0.70)"},
      {"measurement": "F/B ratio (Femur:blood ratio)", "setting": "[1]; 60 min after injection", "value": "180.99 (91.94)"},
      {"measurement": "F/B ratio (Femur:blood ratio)", "setting": "[1]; 180 min after injection", "value": "526.37 (130.49)"},
      {"measurement": "Accumulation of radioactivity in bone (in words)", "setting": "[1]; normal mice", "value": "high accumulation and retention of radioactivity in bone"},
      {"measurement": "Radioactivity in the kidneys (in words)", "setting": "[1]; normal mice", "value": "extremely low accumulation of radioactivity in the kidneys"},
      {"measurement": "Ratio of the intact complex in urine", "setting": "[2]", "value": "85.8 ± 17.4", "unit": "%"}
    ]}
  ]
}
